# Assay results published in patent publication US11241450B2, “Uridine diphosphate derivatives, prodrugs, compositions and uses thereof” (TUFTS UNIVERSITY, priority 2012, dated 2022).
# Where a name gives a salt, the structure may show the parent alone. Read-outs that look alike come from different tables or passages of the source.
# What was measured:
# [1] = molecular target: T1, P2Y2 receptor (Homo sapiens, UniProt P41231); assay: Ca2+ mobilization with fluo-4 in 1321N1 astrocytoma cells expressing P2Y2; type: cell-based; details: 1321N1 cells expressing P2Y2
# T1 construct: expressed in transfected cells; host or cells: 1321N1 human astrocytoma cells
# Method: (§1) Synthetic ligands were tested for activation of P2Y6 receptor by measuring receptor induced Ca^2+ changes with the fluorescent Ca^2+ indicator fluo-4. 1321N1 human astrocytoma cell lines either expressing P2Y2, P2Y4 or P2Y6 receptors were plated into 24-well plates. Two days after plating, fluorometric measurements were made and responses of cells to a serial dilution of ligands were determined. P2Y6 receptor-mediated Ca^2+ fluorescent change was determined by normalized accumulation of fluorescent change of 3 timepoints after ligand administration subtracted by value from ACSF control. Changes in fluorescent intensity were plotted corresponding to ligand concentration in GraphPad. Dose-response curve and EC50 for each ligand was estimated using nonlinear curve fit and Sigmoidal dose-response analysis. […]
# (§2) Synthetic ligands were tested for activation of P2Y6 receptor by measuring receptor induced Ca^2+ changes with the fluorescent Ca^2+ indicator fluo-4, and results are shown in FIG. 10(A)-(K). […] Two days after plating, fluorometric measurements were made and responses of cells to a serial dilution of ligands were determined. P2Y6 receptor-mediated Ca^2+ fluorescent change was determined by normalized accumulation of fluorescent change of 3 timepoints after ligand administration subtracted by value from ACSF control. […]
# [2] = molecular target: T2, P2Y4 receptor (Homo sapiens, UniProt P51582); assay: Ca2+ mobilization with fluo-4 in 1321N1 astrocytoma cells expressing P2Y4; type: cell-based; details: 1321N1 cells expressing P2Y4
# T2 construct: expressed in transfected cells; host or cells: 1321N1 human astrocytoma cells
# Method: as §1, §2
# [3] = molecular target: T3, P2Y6 receptor (Homo sapiens, UniProt Q15077); assay: Activation of P2Y6 receptor: Ca2+ changes with fluo-4 in 1321N1 astrocytoma cells expressing P2Y6; type: cell-based; parameters: expressed in transfected cells; host or cells: 1321N1 human astrocytoma cells
# Method: Synthetic ligands were tested for activation of P2Y6 receptor by measuring receptor induced Ca^2+ changes with the fluorescent Ca^2+ indicator fluo-4. 1321N1 human astrocytoma cell lines either expressing P2Y2, P2Y4 or P2Y6 receptors were plated into 24-well plates. Two days after plating, fluorometric measurements were made and responses of cells to a serial dilution of ligands were determined. P2Y6 receptor-mediated Ca^2+ fluorescent change was determined by normalized accumulation of fluorescent change of 3 timepoints after ligand administration subtracted by value from ACSF control. Changes in fluorescent intensity were plotted corresponding to ligand concentration in GraphPad. Dose-response curve and EC50 for each ligand was estimated using nonlinear curve fit and Sigmoidal dose-response analysis. […] The sodium salt of compound 5 was only effective at elevating Ca^2+ levels when applied to cells expressing P2Y6 receptors and not effective in P2Y2, or P2Y4 receptor expressing cells. The ability of the sodium salt of compound 5 to elevate Ca^2+ signals in P2Y6 expressing cells was attenuated by addition of the P2Y6 receptor antagonist MRS2578.
# as §1, with “fluo-4, and results are shown in FIG. 10(A)-(K).” for “fluo-4.”
# [4] = tested on: amyloid plaques in PSAPP mice; assay: Postmortem immunohistochemistry of plaque load in cortex and hippocampus; type: in vivo, mouse; details: for decrease in plaque load, cortex / decrease in plaque load, hippocampus: acute i.c.v.
# From the text: (§3) Heterozygous mutant (K670N/M671L) APP (50% C57B6, 50% SJL) transgenic mice were crossed with heterozygous mutant (A246E) PS-1 (50% C57B6, 50% SJL) transgenic mice to generate heterozygous PSAPP transgenic mice (also referred to as PS-1/APP or PSAPP+/+ mice), which refers to animals heterozygous for the PS-1 A246E transgene and the APP K670N/M671L transgene. Non-transgenic control animals were littermates (also referred to as PSAPP_−/− mice) generated in the breeding for PSAPP transgenic animals. Mouse genotype was determined by Polymerase Chain Reaction (PCR). Both male and female mice of 6-7 months old were used for the experiments below. All animal experiments were performed in accordance with the Tufts Animal Care and Use Committee and with national regulations and policies.
# Mice were perfused transcardially with 4% paraformaldehyde and 40 μm Coronal sections were collected. Sections were sequentially incubated in 0.3% H2O2 for 10 minutes, blocking solution for 2 hrs, blocking solution containing the primary antibody (rabbit anti-beta1-42; rabbit anti-beta1-40, from Chemicon International and rat anti-CD45) for 48 hours at 4° C., and blocking solution containing biotinylated antibody or fluorescently-labeled antibody for 2 hours at room temperature. Sections were visualized in a bright field microscope or a confocal microscope, and the optical density was obtained using MetaMorph software.
# After repeated imaging, brains were fixed and subjected to postmortem immunohistochemistry with amyloid beta specific antibodies β1-40 and β1-42 to evaluate the plaque load (area occupied by immunostaining of plaque) in cortex and hippocampus.
# PSB0474 was systemically administered to PSAPP mice via intraperitoneal injection for 2, 4 and 6 consecutive days. In one group, prior to evaluation and following to administration for 6 consecutive days, treatment was suspended for two weeks (6+2 weeks group). Brains were then fixed and plaque load was evaluated by immunostaining with the amyloid beta specific antibodies: β1-40 and β1-42. Representative images of plaque load in cortex and hippocampus from animals that received injections of PSB0474 according to the foregoing injection schedules are shown in FIG. 5(A)-(D). […] Whereas, when administration of PSB0474 was stopped for 2 weeks following six consecutive days of treatment (denoted as the 6+2 weeks group), β1-40 staining rebounded; although to a level lower than observed in mice treated with saline as a vehicle control. FIGS. 6A and 6B depict the reduction in plaque load (%) the cortex and hippocampus, respectively, in PSAPP mice after treatment with 3-phenacyl-UDP for 2, 4, or 6 consecutive days, as assayed by staining with the β1-40 antibody. FIGS. 6C-6F depict data obtained following administration of different dosages of PSB0474.
# To generate these graphs showing plaque load, mice were euthanized, brain sections cut and antibodies directed against Aβ 42 were used to disclose Aβ plaques. Images were acquired digitally and an algorithm was applied to threshold the image so that plaques were isolated from the background. The algorithm then calculated the percent area of the field of view occupied by the plaques.
# [5] = tested on: PSAPP mice; assay: Contextual fear conditioning test; type: in vivo, mouse
# From the text: as §3
# On day one, animals were trained in a fear conditioning apparatus for a total of 7 minutes with a two-pairing paradigm of cue and mild foot shock (a 30-s acoustic-conditioned stimulus, 80 dB; a 2-s shock stimulus, 0.5 mA). To evaluate contextual fear learning, the animals were returned to the training context 24 hours post-training, and freezing behavior was scored for 5 minutes. Freezing behavior was monitored by MotorMonitor (Hamilton Kinder) and scored every 5 seconds.
# In this study, the fear conditioning associative learning paradigm was used as a rapid cognition assay for PSAPP mice. This study allowed us to probe cognitive function with a single training day followed in 24 hours by tests for contextual and cued fear learning. Contextual fear learning is dependent upon a brain area that has been implicated as a locus for cognitive decline in AD: the hippocampus. Two pairings of CS-US for fear conditioning were followed 24 hours later by testing for contextual and cued fear learning. Previous studies have reported that PSAPP animals appear to have a selective hippocampus-dependent impairment in associative learning following two pairings of conditioned stimuli for fear conditioning.
# This represents a decrease in the cognitive impairment observed in the untreated mice.
# [6] = tested on: PSAPP mice; assay: Tolerability of increased dose in PSAPP mice; type: in vivo, mouse; details: 1000× increase in dose
# [7] = molecular target: T3, P2Y6 receptor; details: cited from earlier work
# [8] = tested on: amyloid plaques in PSAPP mice; assay: Two-photon in vivo imaging of methoxyX04-labeled amyloid plaques in barrel cortex; parameters: species or system mouse; details: acute i.c.v. injection
# From the text: as §3
# In this study, PSAPP mice were anesthetized using isoflurane and a thin-skull preparation was used to minimize the surface damage. Amyloid plaques were visualized with methoxyX04 labeling and blood plasma was labeled with Rhodamine dextran to facilitate re-localization of the same imaging area. Stack images were obtained using a two-photon system (Prairie Technologies) with excitation at 850 nm. The emission was detected by external photomultiplier tubes (525/70; DLCP 575; 607/45 nm).
# Animals were anesthetized and immobilized in a stereotaxic frame. For each injection, 1 μl of 10 mM UDP or other suitable compounds in artificial cerebrospinalfluid (ACSF) as the vehicle were injected intraventricularly using the following coordinates: AP 0.2 mm, ML 1 mm, and DV 2.2 mm.
# To evaluate the effect of UDP on plaque burden, two-photon microscopy was used to assess the amyloid plaques in the barrel cortex in living PSAPP mice. Amyloid plaques were stained by systemically administered methoxy-X04. One day prior to imaging, PSAPP mice were injected with methoxyX04 to label the amyloid plaques. On the imaging day, to facilitate the re-location of the same imaging area, blood plasma was labeled with Rhodamine dextran. Images were obtained from the same start- and end-point to ensure the same image volume. […]
# [9] = tested on: PSAPP mice; assay: Hippocampal long-term potentiation (LTP) recording; type: in vivo, mouse; details: acute treatment, HFS
# Method: Hippocampal slices (350 μm thick) were prepared from 6-month-old PSAPP mice. Baseline responses were obtained every 10 seconds and Input-output (I/O) curves, paired-pulse modification and LTP were successively measured. The stimulation intensity was set to a level that gives a value of 30% of the maximum obtained. LTP were induced by high frequency stimulation (HFS, 100 pulses at 100 Hz, four times) or by theta-burst stimulation (TBS, 10 bursts at 5 Hz, repeated 10 times in 15 s intervals).
# Accumulated evidence has shown that amyloid peptides naturally secreted or isolated from Alzheimer's brains impair synaptic plasticity, especially hippocampal long-term potentiation (Walsh et al., 2002). Therefore, we further performed LTP recordings in PASPP mice and investigated whether P2Y6 receptor-mediated plaque clearance affects synaptic plasticity. […] First, it was observed that LTP at the schaffer collateral synapse within the CA1 region was depressed in PSAPP mice, as compared with littermates (FIG. 8(A)).
# [10] = tested on: plasma cytokines; assay: Plasma cytokine levels after 7 daily i.p. injections; type: in vivo, mouse; details: 1 μg/kg i.p., 7 days
# Method: Inflammatory cytokines were assessed in mouse plasma of both wild type and PS1/APP mice (Alzheimer's mouse model) and the impact of intraperitoneal delivery of compound 5 on circulating cytokines was assessed. Seven daily intraperitoneal injections of 1 μg/kg of compound 5 were delivered to mice. 24 hours following the final injection, plasma was collected. Wildtype, age matched littermates and PSAPP mice (>6 months of age) were treated either with vehicle (phosphate buffered saline) or vehicle containing compound.
# [11] = β1-42 antibody, vs vehicle control
# [12] = i.p. daily for 7 consecutive days
# T3 sequence (Q15077 whole entry): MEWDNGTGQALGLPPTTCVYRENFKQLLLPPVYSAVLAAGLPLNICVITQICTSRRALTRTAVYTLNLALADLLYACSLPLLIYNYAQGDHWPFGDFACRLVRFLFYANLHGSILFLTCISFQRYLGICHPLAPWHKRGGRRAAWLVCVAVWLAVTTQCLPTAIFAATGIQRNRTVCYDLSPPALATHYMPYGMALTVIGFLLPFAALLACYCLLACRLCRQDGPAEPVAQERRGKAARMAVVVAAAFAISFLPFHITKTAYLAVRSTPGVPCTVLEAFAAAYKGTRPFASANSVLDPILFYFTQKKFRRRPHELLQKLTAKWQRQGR
# T1 sequence (P41231 whole entry): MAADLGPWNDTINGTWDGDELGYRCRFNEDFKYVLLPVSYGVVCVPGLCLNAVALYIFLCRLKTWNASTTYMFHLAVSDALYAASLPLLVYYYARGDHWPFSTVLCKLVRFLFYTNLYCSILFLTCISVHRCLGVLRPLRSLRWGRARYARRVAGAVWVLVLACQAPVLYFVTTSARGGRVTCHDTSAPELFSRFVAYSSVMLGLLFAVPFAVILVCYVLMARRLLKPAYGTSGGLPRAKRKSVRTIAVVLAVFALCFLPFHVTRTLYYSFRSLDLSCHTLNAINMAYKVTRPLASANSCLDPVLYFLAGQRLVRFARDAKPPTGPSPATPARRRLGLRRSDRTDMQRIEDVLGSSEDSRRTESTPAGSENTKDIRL
# T2 sequence (P51582 whole entry): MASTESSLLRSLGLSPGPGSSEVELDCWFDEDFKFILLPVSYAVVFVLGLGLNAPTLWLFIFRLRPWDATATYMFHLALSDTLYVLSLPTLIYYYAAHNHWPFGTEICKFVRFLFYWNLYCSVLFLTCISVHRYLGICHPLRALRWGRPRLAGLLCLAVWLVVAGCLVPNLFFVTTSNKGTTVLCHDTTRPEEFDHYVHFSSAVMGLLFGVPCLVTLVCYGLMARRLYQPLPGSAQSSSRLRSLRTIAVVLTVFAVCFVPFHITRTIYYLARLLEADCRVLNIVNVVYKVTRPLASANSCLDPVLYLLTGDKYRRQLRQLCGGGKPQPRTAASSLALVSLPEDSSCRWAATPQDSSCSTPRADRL
structure (smiles),measurement,setting,value
O=c1ccn(C2OC(COP(=O)(O)OP(=O)(O)O)[C@H](O)C2O)c(=O)n1Cc1noc2ccccc12 (some centres unmarked) [sodium salt of compound 5],elevating Ca2+ levels in P2Y2 receptor expressing cells,[1],not effective
same,elevating Ca2+ levels in P2Y4 receptor expressing cells,[2],not effective
same,elevating Ca2+ levels in cells expressing P2Y6 receptors,[3]; 1321N1 cells expressing P2Y6,effective
same,EC50,"[3]; 1321N1 cells expressing P2Y6, fluo-4 Ca2+",12 nM
same,ability to elevate Ca2+ signals on addition of P2Y6 receptor antagonist MRS2578,"[3]; P2Y6 expressing cells, plus MRS2578",attenuated
O=C(Cn1c(=O)ccn(C2OC(COP(=O)(O)OP(=O)(O)O)C(O)C2O)c1=O)c1ccccc1 (centres unmarked) [3-phenacyl-UDP],effects on the efficacy endpoint at the higher dose,[4]; 1 mg/kg,smaller effects
same,β1-40 staining after stopping administration,"[4]; 6 consecutive days i.p., then stopped for 2 weeks",rebounded
same,immunoreactivity of β1-40 in cortex and hippocampus,[4]; i.p. for 4 and 6 consecutive days,significantly decreased
same,total freezing percentage in context test,"[5]; chronic injection, two doses",increased
same,memory deficit in contextual fear conditioning test,[5]; one week treatment with 1 μg/kg,rescued the memory deficit
same,detrimental effects to the animal,[6],did not cause detrimental effects
same,selectivity for P2Y6 receptor,[7],> 500 fold
same,EC50,"[7]; read-out: EC50, P2Y6 receptor agonist",70 nM
"O=c1ccn([C@@H]2O[C@H](COP(=O)(O)OP(=O)(O)O)[C@@H](O)[C@H]2O)c(=O)[nH]1 [UDP, uridine diphosphate]",reduction in plaque load,"[8]; day 4 vs day 1, barrel cortex",17.2%
same,reduction in the number of plaques,"[8]; day 4 vs day 1, barrel cortex",12.6%
same,reduction in cross-sectional area of individual identified plaques,[8]; second imaging session,18.2%
same,"decrease in plaque load, cortex",[4]; β1-40 antibody,60%
same,"decrease in plaque load, hippocampus",[4]; β1-40 antibody,62%
same,"decrease in plaque load, cortex",[4]; β1-42 antibody,48%
same,"decrease in plaque load, hippocampus",[4]; β1-42 antibody,47%
same,freezing behavior during the first 4 minutes,"[5]; acute i.c.v., 5 minute testing time",increased
same,total freezing percentage,"[5]; acute i.c.v., contextual test",49%±5%
same,LTP deficit at CA1,[9],reversed this LTP deficit
same,"field excitatory postsynaptic potential (fEPSP), last 15 min potentiation",[9],significant increase
O=c1ccn([C@@H]2O[C@H](COP(=O)(O)OP(=O)(O)O)[C@H](O)C2O)c(=O)n1Cc1noc2ccccc12 (some centres unmarked) [Compound 5],Aβ plaque load (%) in the cortex,[4]; [11],substantial decrease
same,Aβ plaque load (%) in the hippocampus,[4]; [11],substantial decrease
same,freezing behavior relative to wildtype animals,[5]; [12],restored to a level equivalent to that observed in wildtype animals
same,total freezing percentage in the context test,[5]; [12],increased
same,plasma level of IL-2,[10]; PSAPP mice,reduced
same,plasma level of IL-7,[10]; PSAPP mice,reduced
same,plasma level of IL-9,[10]; PSAPP mice,reduced
same,plasma level of IL-10,[10]; PSAPP mice,reduced
same,plasma level of IL-15,[10]; PSAPP mice,reduced
same,plasma level of Il-1β,[10]; PSAPP mice,reduced
same,plasma level of MIG,[10]; PSAPP mice,reduced
same,plasma level of MIP1α,[10]; PSAPP mice,reduced
same,plasma level of IL-2,[10]; wildtype animals,reduced
same,plasma level of IL-10,[10]; wildtype animals,reduced
